The results in this text go back to article PMC5498579, “A novel function for globulin in sequestering plant hormone: Crystal structure of Wrightia tinctoria 11S globulin in complex with auxin” (Scientific Reports, 2017).

This experiment deals with T1, Wrightia tinctoria 11S globulin (WTG) (Wrightia tinctoria, UniProt A0A162EGL7).
T1 construct: native purification from seeds; signal peptide (first 26 residues) removed; cleaved at Asn284-Gly285 into acidic and basic subunits joined by disulphide Cys120-Cys291; 18 C-terminal residues not seen; homohexamer
Put plainly: X-ray crystal structure of complex ([…] Å); co-purified ligand identified by MALDI-MS and HRMS. The experiment is classed as binding. To be noted: naturally bound ligand; three pockets at interface of four chains between two trimers; two alternate orientations, 0.5 occupancy; crystals at pH 8.5.

T1 sequence (A0A162EGL7 entry or part of it): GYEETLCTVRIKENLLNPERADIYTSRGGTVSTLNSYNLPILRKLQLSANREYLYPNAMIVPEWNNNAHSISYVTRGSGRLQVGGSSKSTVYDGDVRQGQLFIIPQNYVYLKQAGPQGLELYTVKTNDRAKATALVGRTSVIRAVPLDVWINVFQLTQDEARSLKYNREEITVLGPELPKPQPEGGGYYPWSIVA
T1 sequence (A0A162EGL7 entry or part of it): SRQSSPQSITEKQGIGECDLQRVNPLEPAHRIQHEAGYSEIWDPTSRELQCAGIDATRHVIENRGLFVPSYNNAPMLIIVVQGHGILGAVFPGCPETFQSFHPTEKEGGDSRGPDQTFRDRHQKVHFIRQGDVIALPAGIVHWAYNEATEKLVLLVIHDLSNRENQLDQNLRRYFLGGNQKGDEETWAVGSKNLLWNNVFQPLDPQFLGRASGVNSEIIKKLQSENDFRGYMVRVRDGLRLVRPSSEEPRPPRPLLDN

Regarding `O=C(O)Cc1c[nH]c2ccccc12` [Indole-3-acetic acid], the “X-ray crystal structure of complex (1.7 Å); co-purified ligand identified by MAL” value was “clearly revealed the presence of an IAA molecule in alternate orientation at the hydrophobic site”.
